In ChEMBL document CHEMBL1201862, “PubChem BioAssay data set” (2004):
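Protocol summary: plate cells (96-well), add compound at 5 concentrations, incubate 48 h, interpolate endpoints linearly. At the GI50, growth is halved.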 Active and inactive are the calls of the source. No stated cut-off is given here; in the data, active = GI50 up to about 1.1 µM and inactive = higher.

How the values were obtained:
Assay in all cases: NCI anticancer screen, dose series, 48 h
786-0 = test system: 786-0
A498 = test system: A498
A549 = test system: A549
ACHN = test system: ACHN
CAKI-1 = test system: CAKI-1
CCRF-CEM = test system: CCRF-CEM
COLO 205 = test system: COLO 205
DLD-1 = test system: DLD-1
DMS-273 = test system: DMS-273
EKVX = test system: EKVX
HCC 2998 = test system: HCC 2998
HCT-116 = test system: HCT-116
HCT-15 = test system: HCT-15
HL-60 = test system: HL-60
HOP-18 = test system: HOP-18
HOP-62 = test system: HOP-62
HOP-92 = test system: HOP-92
HT-29 = test system: HT-29
IGROV-1 = test system: IGROV-1
K562 = test system: K562
KM-20L2 = test system: KM-20L2
KM12 = test system: KM12
LOX IMVI = test system: LOX IMVI
LXFL 529 = test system: LXFL 529
M14 = test system: M14
M19-MEL = test system: M19-MEL
MOLT-4 = test system: MOLT-4
Malme-3M = test system: Malme-3M
NCI-H226 = test system: NCI-H226
NCI-H23 = test system: NCI-H23
NCI-H522 = test system: NCI-H522
OVCAR-3 = test system: OVCAR-3
OVCAR-4 = test system: OVCAR-4
OVCAR-5 = test system: OVCAR-5
OVCAR-8 = test system: OVCAR-8
RPMI-8226 = test system: RPMI-8226
RXF 631 = test system: RXF 631
SF-268 = test system: SF-268
SF-295 = test system: SF-295
SF-539 = test system: SF-539
SK-OV-3 = test system: SK-OV-3
SN12C = test system: SN12C
SNB-19 = test system: SNB-19
SNB-78 = test system: SNB-78
SW-620 = test system: SW-620
TK-10 = test system: TK-10
U-251 = test system: U-251
UACC-257 = test system: UACC-257
UACC-62 = test system: UACC-62
UO-31 = test system: UO-31
XF498 = test system: XF498
DMS-114 = test system: DMS-114
NCI-H460 = test system: NCI-H460
RXF 393 = test system: RXF 393
SK-MEL-28 = test system: SK-MEL-28
SK-MEL-2 = test system: SK-MEL-2
SK-MEL-5 = test system: SK-MEL-5
SNB-75 = test system: SNB-75

## COC(=O)/C=C(C)/C=C/c1c(C)c(C(C)=O)c(C)n1C
786-0
  GI50: > 100 µM (inactive)
A498
  GI50: > 100 µM (inactive)
A549
  GI50: > 100 µM (inactive)
ACHN
  GI50: > 100 µM (inactive)
CAKI-1
  GI50: 63.5 µM (inactive)
CCRF-CEM
  GI50: > 100 µM (inactive)
COLO 205
  GI50: > 100 µM (inactive)
DLD-1
  GI50: > 100 µM (inactive)
DMS-273
  GI50: > 100 µM (inactive)
EKVX
  GI50: 88.5 µM (inactive)
HCC 2998
  GI50: > 100 µM (inactive)
HCT-116
  GI50: > 100 µM (inactive)
HCT-15
  GI50: > 100000 nM
HL-60
  GI50: 49.9 µM (inactive)
HOP-18
  GI50: > 100 µM (inactive)
HOP-62
  GI50: > 100 µM (inactive)
HOP-92
  GI50: 18.3 µM (inactive)
HT-29
  GI50: > 100 µM (inactive)
IGROV-1
  GI50: > 100 µM (inactive)
K562
  GI50: 32.1 µM (inactive)
KM-20L2
  GI50: > 100 µM (inactive)
KM12
  GI50: > 100 µM (inactive)
LOX IMVI
  GI50: > 100 µM (inactive)
LXFL 529
  GI50: 88.3 µM (inactive)
M14
  GI50: > 100 µM (inactive)
M19-MEL
  GI50: > 100 µM (inactive)
MOLT-4
  GI50: 40.3 µM (inactive)
Malme-3M
  GI50: > 100 µM (inactive)
NCI-H226
  GI50: 80.4 µM (inactive)
NCI-H23
  GI50: > 100 µM (inactive)
NCI-H522
  GI50: 51.1 µM (inactive)
OVCAR-3
  GI50: > 100 µM (inactive)
OVCAR-4
  GI50: 80.9 µM (inactive)
OVCAR-5
  GI50: > 100 µM (inactive)
OVCAR-8
  GI50: > 100 µM (inactive)
RPMI-8226
  GI50: 57.7 µM (inactive)
RXF 631
  GI50: > 100 µM (inactive)
SF-268
  GI50: > 100 µM (inactive)
SF-295
  GI50: > 100 µM (inactive)
SF-539
  GI50: > 100 µM (inactive)
SK-OV-3
  GI50: > 100 µM (inactive)
SN12C
  GI50: > 100 µM (inactive)
SNB-19
  GI50: > 100 µM (inactive)
SNB-78
  GI50: > 100 µM (inactive)
SW-620
  GI50: > 100 µM (inactive)
TK-10
  GI50: > 100 µM (inactive)
U-251
  GI50: > 100 µM (inactive)
UACC-257
  GI50: > 100 µM (inactive)
UACC-62
  GI50: 96.2 µM (inactive)
UO-31
  GI50: 61.1 µM (inactive)
XF498
  GI50: > 100 µM (inactive)

## COc1cc2c(c(OC)c1OC)-c1ccc(SC)c(=O)cc1[C@@H](NCc1ccccc1[N+](=O)[O-])CC2
786-0
  GI50: 0.0246 µM (active)
A498
  GI50: 0.00417 µM (active)
A549
  GI50: 0.00929 µM (active)
ACHN
  GI50: 0.0439 µM (active)
CAKI-1
  GI50: 0.01 µM (active)
CCRF-CEM
  GI50: 0.00532 µM (active)
COLO 205
  GI50: 0.0082 µM (active)
DLD-1
  GI50: 0.00762 µM (active)
DMS-114
  GI50: 7.96 nM (active)
DMS-273
  GI50: 0.004 µM (active)
EKVX
  GI50: 0.0564 µM (active)
HCC 2998
  GI50: 0.0128 µM (active)
HCT-116
  GI50: 0.00644 µM (active)
HCT-15
  GI50: 11.3 nM
HL-60
  GI50: 0.00313 µM (active)
HOP-62
  GI50: 0.0174 µM (active)
HOP-92
  GI50: 0.0257 µM (active)
HT-29
  GI50: 0.00391 µM (active)
IGROV-1
  GI50: 0.0135 µM (active)
K562
  GI50: 0.00369 µM (active)
KM-20L2
  GI50: 0.00314 µM (active)
KM12
  GI50: 0.00406 µM (active)
LOX IMVI
  GI50: 0.00834 µM (active)
LXFL 529
  GI50: 0.0128 µM (active)
M14
  GI50: 0.00546 µM (active)
M19-MEL
  GI50: 0.004 µM (active)
MOLT-4
  GI50: 0.0241 µM (active)
Malme-3M
  GI50: 0.00817 µM (active)
NCI-H226
  GI50: 0.0234 µM (active)
NCI-H23
  GI50: 0.00429 µM (active)
NCI-H460
  GI50: 16.8 nM (active)
NCI-H522
  GI50: 0.011 µM (active)
OVCAR-3
  GI50: 0.00428 µM (active)
OVCAR-4
  GI50: 0.719 µM (active)
OVCAR-5
  GI50: 0.0216 µM (active)
OVCAR-8
  GI50: 0.0184 µM (active)
RPMI-8226
  GI50: 0.00671 µM (active)
RXF 393
  GI50: 2.86 nM (active)
RXF 631
  GI50: 0.01 µM (active)
SF-268
  GI50: 0.0106 µM (active)
SF-295
  GI50: 0.00826 µM (active)
SF-539
  GI50: 0.00525 µM (active)
SK-MEL-28
  GI50: 4.44 nM (active)
SK-MEL-2
  GI50: 21.7 nM (active)
SK-MEL-5
  GI50: 4.11 nM (active)
SK-OV-3
  GI50: 0.0041 µM (active)
SN12C
  GI50: 0.0209 µM (active)
SNB-19
  GI50: 0.0246 µM (active)
SNB-75
  GI50: 2.25 nM (active)
SNB-78
  GI50: 0.00682 µM (active)
SW-620
  GI50: 0.00333 µM (active)
TK-10
  GI50: 0.061 µM (active)
U-251
  GI50: 0.0154 µM (active)
UACC-257
  GI50: 0.00561 µM (active)
UACC-62
  GI50: 0.00326 µM (active)
UO-31
  GI50: 0.01 µM (active)
XF498
  GI50: 0.0176 µM (active)
